# Paper PMC7501296, “Rapid and direct control of target protein levels with VHL-recruiting dTAG molecules” (Nature Communications, 2020)
# System: EWS502 FKBP12^F36V-EWS/FLI; EWS/FLI^−/− cells
# Experiment: Synergy assessment: antiproliferation of EWS502 FKBP12F36V-EWS/FLI; EWS/FLI-/- cells co-treated with dTAGV-1 and dBET6, 72 h
# Assay type: cell-based
# Procedure: Cell viability was assayed in 2D-adherent or ultra-low adherent 3D-spheroids using CellTiter-Glo (Promega)[6],[15]. Luminescence was measured on an Envision 2104 plate reader (PerkinElmer) and Fluostar Omega Reader (BMG Labtech) and data was analyzed using GraphPad PRISM v8. Synergy assessments were performed using CellTiter-Glo (Promega) with the following modifications to the protocol described in the ref. [34]. In brief, EWS502 cells were plated at 1000 cells per well in 50 µL of appropriate media in 384-well white culture plates (Corning) allowed to adhere overnight, and 100 nL of compounds were added using a Janus Workstation pin tool (PerkinElmer) for 72 h. Cell viability was measured by addition of 10 µL of CellTiter-glo (Promega), followed by incubation for 15 minutes at room temperature. Luminescence was measured on an Envision 2104 plate reader (PerkinElmer) and data was analyzed using GraphPad PRISM v8.
# [1] = co-treatment 19.5 nM dTAGV-1 (log10[M] -7.70927) + 1 nM dBET6 (log10[M] -9.0103)
# [2] = co-treatment 19.5 nM dTAGV-1 (log10[M] -7.70927) + 4 nM dBET6 (log10[M] -8.40824)
# [3] = co-treatment 19.5 nM dTAGV-1 (log10[M] -7.70927) + 15.6 nM dBET6 (log10[M] -7.80618)
# [4] = co-treatment 19.5 nM dTAGV-1 (log10[M] -7.70927) + 62.5 nM dBET6 (log10[M] -7.20412)
# [5] = co-treatment 19.5 nM dTAGV-1 (log10[M] -7.70927) + 250 nM dBET6 (log10[M] -6.60206)
# [6] = co-treatment 78 nM dTAGV-1 (log10[M] -7.10721) + 1 nM dBET6 (log10[M] -9.0103)
# [7] = co-treatment 78 nM dTAGV-1 (log10[M] -7.10721) + 4 nM dBET6 (log10[M] -8.40824)
# [8] = co-treatment 78 nM dTAGV-1 (log10[M] -7.10721) + 15.6 nM dBET6 (log10[M] -7.80618)
# [9] = co-treatment 78 nM dTAGV-1 (log10[M] -7.10721) + 62.5 nM dBET6 (log10[M] -7.20412)
# [10] = co-treatment 78 nM dTAGV-1 (log10[M] -7.10721) + 250 nM dBET6 (log10[M] -6.60206)
# [11] = co-treatment 312.5 nM dTAGV-1 (log10[M] -6.50515) + 1 nM dBET6 (log10[M] -9.0103)
# [12] = co-treatment 312.5 nM dTAGV-1 (log10[M] -6.50515) + 4 nM dBET6 (log10[M] -8.40824)
# [13] = co-treatment 312.5 nM dTAGV-1 (log10[M] -6.50515) + 15.6 nM dBET6 (log10[M] -7.80618)
# [14] = co-treatment 312.5 nM dTAGV-1 (log10[M] -6.50515) + 62.5 nM dBET6 (log10[M] -7.20412)
# [15] = co-treatment 312.5 nM dTAGV-1 (log10[M] -6.50515) + 250 nM dBET6 (log10[M] -6.60206)
# [16] = co-treatment 1250 nM dTAGV-1 (log10[M] -5.90309) + 1 nM dBET6 (log10[M] -9.0103)
# [17] = co-treatment 1250 nM dTAGV-1 (log10[M] -5.90309) + 4 nM dBET6 (log10[M] -8.40824)
# [18] = co-treatment 1250 nM dTAGV-1 (log10[M] -5.90309) + 15.6 nM dBET6 (log10[M] -7.80618)
# [19] = co-treatment 1250 nM dTAGV-1 (log10[M] -5.90309) + 62.5 nM dBET6 (log10[M] -7.20412)
# [20] = co-treatment 1250 nM dTAGV-1 (log10[M] -5.90309) + 250 nM dBET6 (log10[M] -6.60206)
# [21] = co-treatment 5000 nM dTAGV-1 (log10[M] -5.30103) + 1 nM dBET6 (log10[M] -9.0103)
# [22] = co-treatment 5000 nM dTAGV-1 (log10[M] -5.30103) + 4 nM dBET6 (log10[M] -8.40824)
# [23] = co-treatment 5000 nM dTAGV-1 (log10[M] -5.30103) + 15.6 nM dBET6 (log10[M] -7.80618)
# [24] = co-treatment 5000 nM dTAGV-1 (log10[M] -5.30103) + 62.5 nM dBET6 (log10[M] -7.20412)
# [25] = co-treatment 5000 nM dTAGV-1 (log10[M] -5.30103) + 250 nM dBET6 (log10[M] -6.60206)
smiles,measurement,setting,value
CC[C@H](C(=O)N1CCCC[C@H]1C(=O)O[C@H](CCc1ccc(OC)c(OC)c1)c1ccccc1OCC(=O)NCCCCCCC(=O)N[C@H](C(=O)N1C[C@H](O)C[C@H]1C(=O)N[C@@H](C)c1ccc(-c2scnc2C)cc1)C(C)(C)C)c1cc(OC)c(OC)c(OC)c1 [dTAG^V-1],Average DMSO-normalized ratio used for CI calculation,19.5 nM dTAGV-1 alone,0.9622
same,Average DMSO-normalized ratio used for CI calculation,78 nM dTAGV-1 alone,1.188
same,Average DMSO-normalized ratio used for CI calculation,312.5 nM dTAGV-1 alone,1.089
same,Average DMSO-normalized ratio used for CI calculation,1250 nM dTAGV-1 alone,1.112
same,Average DMSO-normalized ratio used for CI calculation,5000 nM dTAGV-1 alone,1.06
same,"DMSO-normalized antiproliferation, Mean",[1],98.11
same,"DMSO-normalized antiproliferation, Mean",[2],98.09
same,"DMSO-normalized antiproliferation, Mean",[3],79.8
same,"DMSO-normalized antiproliferation, Mean",[4],50.57
same,"DMSO-normalized antiproliferation, Mean",[5],35.76
same,"DMSO-normalized antiproliferation, Mean",[6],113.36
same,"DMSO-normalized antiproliferation, Mean",[7],105.67
same,"DMSO-normalized antiproliferation, Mean",[8],83.17
same,"DMSO-normalized antiproliferation, Mean",[9],54.14
same,"DMSO-normalized antiproliferation, Mean",[10],36.78
same,"DMSO-normalized antiproliferation, Mean",[11],111.14
same,"DMSO-normalized antiproliferation, Mean",[12],105.95
same,"DMSO-normalized antiproliferation, Mean",[13],72.28
same,"DMSO-normalized antiproliferation, Mean",[14],49.08
same,"DMSO-normalized antiproliferation, Mean",[15],33.26
same,"DMSO-normalized antiproliferation, Mean",[16],89.48
same,"DMSO-normalized antiproliferation, Mean",[17],74.91
same,"DMSO-normalized antiproliferation, Mean",[18],44.25
same,"DMSO-normalized antiproliferation, Mean",[19],31.06
same,"DMSO-normalized antiproliferation, Mean",[20],29.68
same,"DMSO-normalized antiproliferation, Mean",[21],80.15
same,"DMSO-normalized antiproliferation, Mean",[22],47.93
same,"DMSO-normalized antiproliferation, Mean",[23],27.9
same,"DMSO-normalized antiproliferation, Mean",[24],26.15
same,"DMSO-normalized antiproliferation, Mean",[25],25.03
same,"DMSO-normalized antiproliferation, Mean","dTAGV-1 log10[M] -5.30103, with DMSO (no dBET6)",106.03
same,"DMSO-normalized antiproliferation, Mean","dTAGV-1 log10[M] -5.90309, with DMSO (no dBET6)",111.22
same,"DMSO-normalized antiproliferation, Mean","dTAGV-1 log10[M] -6.50515, with DMSO (no dBET6)",108.9
same,"DMSO-normalized antiproliferation, Mean","dTAGV-1 log10[M] -7.10721, with DMSO (no dBET6)",118.75
same,"DMSO-normalized antiproliferation, Mean","dTAGV-1 log10[M] -7.70927, with DMSO (no dBET6)",96.22
Cc1sc2c(c1C)C(c1ccc(Cl)cc1)=N[C@@H](CC(=O)NCCCCCCCCNC(=O)COc1cccc3c1C(=O)N(C1CCC(=O)NC1=O)C3=O)c1nnc(C)n1-2 (stereo partly drawn) [dBET6],Average DMSO-normalized ratio used for CI calculation,1 nM dBET6 + 19.5 nM dTAGV-1,0.9811
same,Average DMSO-normalized ratio used for CI calculation,1 nM dBET6 + 78 nM dTAGV-1,1.134
same,Average DMSO-normalized ratio used for CI calculation,1 nM dBET6 + 312.5 nM dTAGV-1,1.111
same,Average DMSO-normalized ratio used for CI calculation,1 nM dBET6 + 1250 nM dTAGV-1,0.8948
same,Average DMSO-normalized ratio used for CI calculation,1 nM dBET6 + 5000 nM dTAGV-1,0.8015
same,Average DMSO-normalized ratio used for CI calculation,1 nM dBET6 alone,0.8411
same,Average DMSO-normalized ratio used for CI calculation,4 nM dBET6 + 19.5 nM dTAGV-1,0.9809
same,Average DMSO-normalized ratio used for CI calculation,4 nM dBET6 + 78 nM dTAGV-1,1.057
same,Average DMSO-normalized ratio used for CI calculation,4 nM dBET6 + 312.5 nM dTAGV-1,1.0595
same,Average DMSO-normalized ratio used for CI calculation,4 nM dBET6 + 1250 nM dTAGV-1,0.7491
same,Average DMSO-normalized ratio used for CI calculation,4 nM dBET6 + 5000 nM dTAGV-1,0.4793
same,Average DMSO-normalized ratio used for CI calculation,4 nM dBET6 alone,0.8957
same,Average DMSO-normalized ratio used for CI calculation,15.6 nM dBET6 + 19.5 nM dTAGV-1,0.798
same,Average DMSO-normalized ratio used for CI calculation,15.6 nM dBET6 + 78 nM dTAGV-1,0.8317
same,Average DMSO-normalized ratio used for CI calculation,15.6 nM dBET6 + 312.5 nM dTAGV-1,0.7228
same,Average DMSO-normalized ratio used for CI calculation,15.6 nM dBET6 + 1250 nM dTAGV-1,0.4425
same,Average DMSO-normalized ratio used for CI calculation,15.6 nM dBET6 + 5000 nM dTAGV-1,0.279
same,Average DMSO-normalized ratio used for CI calculation,15.6 nM dBET6 alone,0.7797
same,Average DMSO-normalized ratio used for CI calculation,62.5 nM dBET6 + 19.5 nM dTAGV-1,0.5057
same,Average DMSO-normalized ratio used for CI calculation,62.5 nM dBET6 + 78 nM dTAGV-1,0.5414
same,Average DMSO-normalized ratio used for CI calculation,62.5 nM dBET6 + 312.5 nM dTAGV-1,0.4908
same,Average DMSO-normalized ratio used for CI calculation,62.5 nM dBET6 + 1250 nM dTAGV-1,0.3106
same,Average DMSO-normalized ratio used for CI calculation,62.5 nM dBET6 + 5000 nM dTAGV-1,0.2615
same,Average DMSO-normalized ratio used for CI calculation,62.5 nM dBET6 alone,0.5245
same,Average DMSO-normalized ratio used for CI calculation,250 nM dBET6 + 19.5 nM dTAGV-1,0.3576
same,Average DMSO-normalized ratio used for CI calculation,250 nM dBET6 + 78 nM dTAGV-1,0.3678
same,Average DMSO-normalized ratio used for CI calculation,250 nM dBET6 + 312.5 nM dTAGV-1,0.3326
same,Average DMSO-normalized ratio used for CI calculation,250 nM dBET6 + 1250 nM dTAGV-1,0.2968
same,Average DMSO-normalized ratio used for CI calculation,250 nM dBET6 + 5000 nM dTAGV-1,0.2503
same,Average DMSO-normalized ratio used for CI calculation,250 nM dBET6 alone,0.3398
same,"DMSO-normalized antiproliferation, Mean",[1],98.11
same,"DMSO-normalized antiproliferation, Mean",[2],98.09
same,"DMSO-normalized antiproliferation, Mean",[3],79.8
same,"DMSO-normalized antiproliferation, Mean",[4],50.57
same,"DMSO-normalized antiproliferation, Mean",[5],35.76
same,"DMSO-normalized antiproliferation, Mean",[6],113.36
same,"DMSO-normalized antiproliferation, Mean",[7],105.67
same,"DMSO-normalized antiproliferation, Mean",[8],83.17
same,"DMSO-normalized antiproliferation, Mean",[9],54.14
same,"DMSO-normalized antiproliferation, Mean",[10],36.78
same,"DMSO-normalized antiproliferation, Mean",[11],111.14
same,"DMSO-normalized antiproliferation, Mean",[12],105.95
same,"DMSO-normalized antiproliferation, Mean",[13],72.28
same,"DMSO-normalized antiproliferation, Mean",[14],49.08
same,"DMSO-normalized antiproliferation, Mean",[15],33.26
same,"DMSO-normalized antiproliferation, Mean",[16],89.48
same,"DMSO-normalized antiproliferation, Mean",[17],74.91
same,"DMSO-normalized antiproliferation, Mean",[18],44.25
same,"DMSO-normalized antiproliferation, Mean",[19],31.06
same,"DMSO-normalized antiproliferation, Mean",[20],29.68
same,"DMSO-normalized antiproliferation, Mean",[21],80.15
same,"DMSO-normalized antiproliferation, Mean",[22],47.93
same,"DMSO-normalized antiproliferation, Mean",[23],27.9
same,"DMSO-normalized antiproliferation, Mean",[24],26.15
same,"DMSO-normalized antiproliferation, Mean",[25],25.03
same,Synergy with VHL-mediated EWS/FLI degradation (dTAGV-1),combination index,synergized strongly
same,"DMSO-normalized antiproliferation, Mean","dBET6 log10[M] -6.60206, with DMSO (no dTAGV-1)",33.98
same,"DMSO-normalized antiproliferation, Mean","dBET6 log10[M] -7.20412, with DMSO (no dTAGV-1)",52.45
same,"DMSO-normalized antiproliferation, Mean","dBET6 log10[M] -7.80618, with DMSO (no dTAGV-1)",77.97
same,"DMSO-normalized antiproliferation, Mean","dBET6 log10[M] -8.40824, with DMSO (no dTAGV-1)",89.57
same,"DMSO-normalized antiproliferation, Mean","dBET6 log10[M] -9.0103, with DMSO (no dTAGV-1)",84.11
